Test results as given in US11407711B2, “Benzamide compound and use thereof” (METISA BIOTECHNOLOGY CO., LTD., priority 2018, dated 2022).
Read-outs that look alike come from different tables or passages of the source.

Assays:
Type in all cases: in vivo
Chilo suppressalis = experiment: Insecticidal activity against Chilo suppressalis (spray on rice seedlings, stems fed to larvae)
Description: (§1) The compound to be tested was dissolved by a mixed solvent of acetone/methanol (1:1), and then diluted by water containing 0.1% (wt) Tween 80 to the required concentration.
(§2) An Airbrush spray method was adopted for the determination of the activity, with armyworm, Plutella xylostella and Chilo suppressalis as targets.
Determination method: 1) preparation of rice seedlings: rice was cultivated in small plastic cups (diameter: 4.5 cm and height: 4 cm) at a constant temperature room (temperature: 26-28° C., relative humidity: 60-80% around and illumination: 16 hL:8 hD), after the rice grew to a 4-5 leaf stage, vigorous and uniform-growth rice seedlings were selected and treated with an insecticide, 3 repeats for each treatment. 2) Preparation of pests for test: 3rd-instar larvaes of Chilo suppressalis fed continuously in the room. 3) Inoculation of pests on rice stems by spray. The whole plants of the rice seedlings were sprayed by a spray method uniformly, with the dose of 15 ml for each treatment. The blank control was treated first, and the above operation was repeated in an order of lower to higher test concentration. After sprayed, rice seedlings were placed in the shade to dry the insecticide liquor, and then stalks about 5 cm above the basal part of the stems were cut to be fed to the pests for test. Glass petri dishes (diameter: […]) were prepared, cushioned by filter paper at the bottom thereof, and subjected to water addition for moisturizing; about 20 pieces of rice stems were put in each dish and inoculated with 10 larvaes; then the petri dishes were closed by non-woven fabrics and placed in a constant temperature room for culture. The number of survivals was surveyed 3 d after administration.

Plutella xylostella = experiment: Insecticidal activity against Plutella xylostella (Airbrush spray on cabbage leaf discs); settings: for pest or weed control at 0.5 µg/mL / pest or weed control at 1 µg/mL / pest or weed control at 10 µg/mL: Plutella xylostella, foliar, 72 h; for Fatality rate (%, 3 d after administration) 5 mg/L: Table 72, 5 mg/L; for Fatality rate (%, 3 d after administration) 0.05 mg/L: Table 74, 0.05 mg/L
Description: as §1, §2
Determination method: cabbage blades were punched into 2 cm (diameter) leaf discs by a puncher; with the pressure of Airbrush spray being 10 psi (about 0.7 kg/cm^2), both sides of each leaf disc were sprayed with the amount of 0.5 ml. After dried in the shade, each leaf disc was inoculated with 10 3rd-instar larvaes, 3 repeats for each leaf disc. And then, the treated leaf discs were put into an observation room (25° C., relative humidity: 60-70%) for cultivation; the number of the survivals was surveyed 1 d, 2 d and 3 d after administration, and then the death rate was calculated.

armyworm = experiment: Insecticidal activity against armyworm (Airbrush spray on maize blade segments); settings: 72 h, read-out: fatality rate against armyworm
Description: as §1, §2
Determination method: maize blades were cut into 2 cm (length) segments; with the pressure of Airbrush spray being 10 psi (about 0.7 kg/cm^2), both sides of each blade segment were sprayed with the amount of 0.5 ml. After dried in the shade, each segment was inoculated with 10 3rd-instar larvaes, 3 repeats for each segment. And then, the treated segments were put into an observation room (25° C., relative humidity: 60-70%) for cultivation; the number of the survivals was surveyed 1 d, 2 d and 3 d after administration, and then the death rate was calculated.

[1] = Table 71, 10 mg/L, 3 d after administration, read-out: Fatality rate (%, 3 d after administration) 10 mg/L
[2] = Table 73, 0.5 mg/L, 3 d after administration, read-out: Fatality rate (%, 3 d after administration) 0.5 mg/L
[3] = Table 73, 1 mg/L, 3 d after administration, read-out: Fatality rate (%, 3 d after administration) 1 mg/L
[4] = Table 73, 0.5 mg/L, 3 d after administration
[5] = Table 73, 1 mg/L, 3 d after administration
[6] = Table 75, fast-acting efficacy, dose 0.5 mg/L
[7] = Chilo suppressalis, 72 h, read-out: fatality rate against Chilo suppressalis
[8] = read-out: Fatality rate (%, 3 d after administration) 10 mg/L, Table 71, 10 mg/L, 3 d after administration
[9] = read-out: fatality rate against Plutella xylostella, 1 mg/L, 3 d after administration
[10] = Table 72, 1 mg/L, 3 d after administration
[11] = read-out: Fatality rate (%, 3 d after administration) 1 mg/L, Table 73, 1 mg/L, 3 d after administration
[12] = Table 74, 0.5 mg/L, 3 d after administration
[13] = Table 76, fast-acting efficacy, dose 0.05 mg/L

N#CCN(C(=O)c1ccc(C#N)cc1)c1cccc(C(=O)Nc2c(Br)cc(C(F)(C(F)(F)F)C(F)(F)F)cc2Br)c1F [Compound 2.17]
pest or weed control at 1 µg/mL (Chilo suppressalis; Chilo suppressalis, 72 h, 1 mg/L, survivals surveyed 3 d after administration, read-out: fatality rate against Chilo suppressalis): ≥ 90%
pest or weed control at 4 µg/mL (Chilo suppressalis; Chilo suppressalis, 72 h, 4 mg/L, survivals surveyed 3 d after administration, read-out: fatality rate against Chilo suppressalis): ≥ 90%
pest or weed control at 40 µg/mL (Chilo suppressalis; Chilo suppressalis, 72 h, 40 mg/L, survivals surveyed 3 d after administration, read-out: fatality rate against Chilo suppressalis): ≥ 90%
pest or weed control at 0.5 µg/mL (Plutella xylostella; 0.5 mg/L, 3 d after administration, read-out: fatality rate against Plutella xylostella): ≥ 90%
pest or weed control at 1 µg/mL (Plutella xylostella; 1 mg/L, 3 d after administration, read-out: fatality rate against Plutella xylostella): ≥ 90%
pest or weed control at 10 µg/mL (Plutella xylostella; [1]): 100%
pest or weed control at 0.5 µg/mL (Plutella xylostella; [2]): 100%
pest or weed control at 1 µg/mL (Plutella xylostella; [3]): 100%
pest or weed control at 0.05 µg/mL (armyworm; 0.05 mg/L, 3 d after administration, 3rd-instar larvae): ≥ 90%
pest or weed control at 0.1 µg/mL (armyworm; 0.1 mg/L, 3 d after administration, 3rd-instar larvae): ≥ 90%
pest or weed control at 0.5 µg/mL (armyworm; 0.5 mg/L, 3 d after administration, 3rd-instar larvae): ≥ 90%

NC(=O)CCN(C(=O)c1ccccc1)c1cccc(C(=O)N(CCC(N)=O)c2c(Br)cc(C(F)(C(F)(F)F)C(F)(F)F)cc2C(F)(F)F)c1F [CK13, reference compound]
Fatality rate (%, 3 d after administration) 0.5 mg/L (Plutella xylostella; [4]): 0%
Fatality rate (%, 3 d after administration) 1 mg/L (Plutella xylostella; [5]): 75%

O=C(Nc1cccc(C(=O)Nc2c(Br)cc(C(F)(C(F)(F)F)C(F)(F)F)cc2Br)c1F)c1ccccc1 [CK15, reference compound]
Fatality rate (%, 3 d after administration) 1.25 mg/L (Chilo suppressalis; Table 77, 1.25 mg/L, 3 d after administration): 8.6%
Fatality rate (%, 3 d after administration) 2.5 mg/L (Chilo suppressalis; Table 77, 2.5 mg/L, 3 d after administration): 22.2%
Fatality rate (%, 3 d after administration) 5 mg/L (Chilo suppressalis; Table 77, 5 mg/L, 3 d after administration): 50.3%
pest or weed control at 0.5 µg/mL (Plutella xylostella; [2]): 50%
pest or weed control at 1 µg/mL (Plutella xylostella; [3]): 90%
Fatality rate (%) 1 d after administration (Plutella xylostella; [6]): 0%
Fatality rate (%) 2 d after administration (Plutella xylostella; [6]): 30%
Fatality rate (%) 3 d after administration (Plutella xylostella; Table 75, fast-acting efficacy, dose 0.5 mg/L, 3 d after administration): 50%

COCN(C(=O)c1ccccc1)c1cccc(C(=O)Nc2c(C)cc(C(F)(C(F)(F)F)C(F)(F)F)cc2C)c1 [CK2, reference compound]
pest or weed control at 10 µg/mL (Plutella xylostella; [1]): 0%

COCN(C(=O)c1ccccc1)c1cccc(C(=O)N(C)c2c(C)cc(C(F)(C(F)(F)F)C(F)(F)F)cc2C)c1 [CK1, reference compound]
pest or weed control at 10 µg/mL (Plutella xylostella; [1]): 0%

N#CCN(C(=O)c1ccccc1)c1cccc(C(=O)Nc2c(Br)cc(C(F)(C(F)(F)F)C(F)(F)F)cc2I)c1F [Compound 8.321]
pest or weed control at 4 µg/mL (Chilo suppressalis; [7]): ≥ 90%
pest or weed control at 40 µg/mL (Chilo suppressalis; [7]): ≥ 90%
pest or weed control at 10 µg/mL (Plutella xylostella; [8]): 100%
pest or weed control at 1 µg/mL (Plutella xylostella; [9]): ≥ 90%
pest or weed control at 0.1 µg/mL (armyworm): ≥ 90%
pest or weed control at 0.5 µg/mL (armyworm): ≥ 90%

NC(=O)CCN(C(=O)c1ccccc1)c1cccc(C(=O)N(CCC(N)=O)c2c(Br)cc(C(F)(C(F)(F)F)C(F)(F)F)cc2C(F)(F)F)c1F [CK9, reference compound]
Fatality rate (%, 3 d after administration) 0.5 mg/L (Plutella xylostella; [4]): 0%
Fatality rate (%, 3 d after administration) 1 mg/L (Plutella xylostella; [5]): 55%

NC(=O)CCN(C(=O)c1ccccc1)c1cccc(C(=O)N(CCC(N)=O)c2c(Br)cc(C(F)(C(F)(F)F)C(F)(F)F)cc2C(F)(F)F)c1F [CK12, reference compound]
Fatality rate (%, 3 d after administration) 1 mg/L (Plutella xylostella; [10]): 0%
Fatality rate (%, 3 d after administration) 5 mg/L (Plutella xylostella; 3 d after administration): 60%

N#CCN(C(=O)c1ccccc1)c1cccc(C(=O)N(CC#N)c2c(Br)cc(C(F)(C(F)(F)F)C(F)(F)F)cc2Br)c1F [Compound 58.321]
pest or weed control at 4 µg/mL (Chilo suppressalis; [7]): ≥ 90%
pest or weed control at 40 µg/mL (Chilo suppressalis; [7]): ≥ 90%
pest or weed control at 0.5 µg/mL (Plutella xylostella; read-out: Fatality rate (%, 3 d after administration) 0.5 mg/L, Table 73, 0.5 mg/L, 3 d after administration): 98%
pest or weed control at 1 µg/mL (Plutella xylostella; [11]): 100%
pest or weed control at 10 µg/mL (Plutella xylostella; [8]): 100%
pest or weed control at 0.5 µg/mL (Plutella xylostella; read-out: fatality rate against Plutella xylostella, 0.5 mg/L, 3 d after administration): ≥ 90%
pest or weed control at 1 µg/mL (Plutella xylostella; [9]): ≥ 90%
pest or weed control at 0.1 µg/mL (armyworm): ≥ 90%
pest or weed control at 0.5 µg/mL (armyworm): ≥ 90%

NC(=O)CCN(C(=O)c1ccccc1)c1cccc(C(=O)N(CCC(N)=O)c2c(Br)cc(C(F)(C(F)(F)F)C(F)(F)F)cc2C(F)(F)F)c1F [CK5, reference compound]
pest or weed control at 1 µg/mL (Plutella xylostella; read-out: Fatality rate (%, 3 d after administration) 1 mg/L, Table 72, 1 mg/L, 3 d after administration): 0%
Fatality rate (%, 3 d after administration) 5 mg/L (Plutella xylostella; 3 d after administration): 63.5%

NC(=O)CCN(C(=O)c1ccccc1)c1cccc(C(=O)N(CCC(N)=O)c2c(Br)cc(C(F)(C(F)(F)F)C(F)(F)F)cc2C(F)(F)F)c1F [CK7, reference compound]
pest or weed control at 0.5 µg/mL (Plutella xylostella; read-out: Fatality rate (%, 3 d after administration) 0.5 mg/L, Table 74, 0.5 mg/L, 3 d after administration): 70%
Fatality rate (%, 3 d after administration) 0.05 mg/L (Plutella xylostella; 3 d after administration): 0%

NC(=O)CCN(C(=O)c1ccccc1)c1cccc(C(=O)N(CCC(N)=O)c2c(Br)cc(C(F)(C(F)(F)F)C(F)(F)F)cc2C(F)(F)F)c1F [CK4, reference compound]
pest or weed control at 10 µg/mL (Plutella xylostella; [8]): 0%

NC(=O)CCN(C(=O)c1ccccc1)c1cccc(C(=O)N(CCC(N)=O)c2c(Br)cc(C(F)(C(F)(F)F)C(F)(F)F)cc2C(F)(F)F)c1F [CK11, reference compound]
Fatality rate (%, 3 d after administration) 0.05 mg/L (Plutella xylostella; 3 d after administration): 0%
Fatality rate (%, 3 d after administration) 0.5 mg/L (Plutella xylostella; [12]): 75%

NC(=O)CCN(C(=O)c1ccccc1)c1cccc(C(=O)N(CCC(N)=O)c2c(Br)cc(C(F)(C(F)(F)F)C(F)(F)F)cc2C(F)(F)F)c1F [CK8, reference compound]
Fatality rate (%, 3 d after administration) 1 mg/L (Plutella xylostella; [10]): 0%
Fatality rate (%, 3 d after administration) 5 mg/L (Plutella xylostella; 3 d after administration): 65.8%

Cc1cc(C(F)(C(F)(F)F)C(F)(F)F)cc(C)c1NC(=O)c1cccc(N(C#N)C(=O)c2ccccc2)c1 [CK3, reference compound]
pest or weed control at 10 µg/mL (Plutella xylostella; [1]): 0%

NC(=O)CCN(C(=O)c1ccccc1)c1cccc(C(=O)N(CCC(N)=O)c2c(Br)cc(C(F)(C(F)(F)F)C(F)(F)F)cc2C(F)(F)F)c1F [CK6, reference compound]
pest or weed control at 1 µg/mL (Plutella xylostella; [11]): 68%
Fatality rate (%, 3 d after administration) 0.5 mg/L (Plutella xylostella; [4]): 10%

NC(=O)CCN(C(=O)c1ccccc1)c1cccc(C(=O)N(CCC(N)=O)c2c(Br)cc(C(F)(C(F)(F)F)C(F)(F)F)cc2C(F)(F)F)c1F [CK10, reference compound]
Fatality rate (%, 3 d after administration) 0.5 mg/L (Plutella xylostella; [4]): 0%
Fatality rate (%, 3 d after administration) 1 mg/L (Plutella xylostella; [5]): 55%

NC(=O)CCN(C(=O)c1ccccc1)c1cccc(C(=O)N(CCC(N)=O)c2c(Br)cc(C(F)(C(F)(F)F)C(F)(F)F)cc2C(F)(F)F)c1F [CK14, reference compound]
Fatality rate (%, 3 d after administration) 0.05 mg/L (Plutella xylostella; 3 d after administration): 0%
Fatality rate (%, 3 d after administration) 0.5 mg/L (Plutella xylostella; [12]): 60%

CN(C(=O)c1ccccc1)c1cccc(C(=O)Nc2c(Br)cc(C(F)(C(F)(F)F)C(F)(F)F)cc2C(F)(F)F)c1F [CK16, broflanilide, reference compound]
Fatality rate (%, 3 d after administration) 0.625 mg/L (Chilo suppressalis; Table 78, 0.625 mg/L, 3 d after administration): 10%
Fatality rate (%, 3 d after administration) 1.25 mg/L (Chilo suppressalis; Table 78, 1.25 mg/L, 3 d after administration): 60.3%
Fatality rate (%, 3 d after administration) 2.5 mg/L (Chilo suppressalis; Table 78, 2.5 mg/L, 3 d after administration): 85.5%
pest or weed control at 0.5 µg/mL (Plutella xylostella; Table 74, 0.5 mg/L, 3 d after administration, read-out: Fatality rate (%, 3 d after administration) 0.5 mg/L): 100%
Fatality rate (%, 3 d after administration) 0.05 mg/L (Plutella xylostella; 3 d after administration): 80.8%
Fatality rate (%) 1 d after administration (Plutella xylostella; [13]): 0%
Fatality rate (%) 2 d after administration (Plutella xylostella; [13]): 52.5%
Fatality rate (%) 3 d after administration (Plutella xylostella; Table 76, fast-acting efficacy, dose 0.05 mg/L, 3 d after administration): 80.8%
